We go through 1 compound from patent publication US20100069335A1, “Prevention and Treatment of Ophthalmic Complications of Diabetes” (priority 2005, published 2010).

One data set concerns rat lens organ culture. In words: Glucose-induced toxicity in rat lens organ culture (RLCE). Type of data set: cell-based. Particulars: 50 mM glucose, 4 mM MSM, 0.5 mM EDTA. The procedure:
Animals. Male Sprague-Dawley rats weighing 200-250 g were obtained from Central Animal Care Services at the University of Texas Medical Branch. The NIH guidelines and ARVO statement for the Use of Animals in Ophthalmic and Vision Research were strictly followed for the welfare of the animals. Rats were sacrificed with using 100% carbon dioxide at a low flow rate (25-30% of the volume of the cage per minute) with two rats in a cage. After the rats stopped breathing for about 2 minutes, the eyeballs were removed. […] Experimental Procedure. 1. Sacrificed four rats, removed the eyeballs as soon as possible and put them into a tube containing PBS with 0.1% gentamicin. 2. Dissected the lenses immediately and washed with 1% penicillin/streptomycin in sterile with PBS. 3. Transferred each lens to a well of a 12-well plate (2 ml of medium per well, i.e., per lens). Each treatment was performed in 2 wells. The lenses were cultured in medium 199 containing 0.1% gentamicin at 37° C. in a 5% CO2 humidified atmosphere. Reagents as described above were added to three groups of two wells to give the following three treatments: • 50 mM glucose • 50 mM glucose+4 mM MSM • 50 mM glucose+4 mM MSM+0.5 mM EDTA One group of two wells was left untreated as a control. […] Photographs were taken using a Multidimensional Imaging System, and the level of light transparency through the lenses was determined

The test system of data set [1] is Human lens epithelial cells (HLEC). The experiment in a line: Viability of human lens epithelial cells subjected to glucose-induced toxicity (Trypan Blue). Type of data set: cell-based. The note with it: 50 mM glucose; 4 mM MSM, 0.5 mM EDTA; 16 hrs; glucose alone decreased viability by 30%. How it is done:
Cell Culture and Treatment. Human lens epithelial […] extended life span were cultured in DMEM medium containing 0.1% gentamicin and supplemented with 20% fetal bovine serum at 37° C. in a 5% CO2-humidified atmosphere. 1.0×10^5 […] (Passage 5) were seeded in 12-well plate overnight prior to the addition of glucose, MSM or MSM/EDTA. The wells were divided into six groups of two wells. Cell viability. Cell survival was determined by Trypan Blue staining and counted with a hemocytometer. Dead cells stain blue, while live cells exclude Trypan Blue. Cell viability is represented as a percentage corresponding to the number of live cells divided by the total cells. […] DMEM+20% FBS+0.1% gentamicin • 400 mM MSM: 376 mg/10 ml PBS for stock • 50 mM EDTA (Tetrasodium Salt): 190 mg/10 ml PBS for stock, pH 7.2 • 5 M Glucose: 1800 mg/10 ml of dd H2O Experimental Procedure. 1. Seeded 0.5×10^5/ml of HLEC (Passage 5) into three 12-well plates, then incubated at 37° C. overnight. 2. Changed medium to 2% FBS DMEM medium. 3. […] They were harvested with 0.25% Trypsin-EDTA and cell viability was determined with Trypan-Blue.

The conditions of data set [2]: at 79° F.; cited from earlier work.

Consider `CS(C)(=O)=O` [MSM, methylsulfonylmethane], for which the “lens opacification by glucose (photographs, FIG. 2)” value with rat lens organ culture (seven days of culture) was “mitigated lens opacification”. Further, the “light transmission through the lens, relative to the untreated control (FIG. 3)” value in the data set on rat lens organ culture (seven days, glucose alone 45%) worked out at 68%. In addition, the “percent cell viability (FIG. 6)” value in data set [1] is on record as “increased the percent cell viability”. Further, the water solubility in data set [2] is 34 % w/v.
